The values below come from US20230363954A1, “METHOD FOR MAKING AN ABSORBENT ARTICLE AND ABSORBENT ARTICLE” (The Procter & Gamble Company, priority 2022, published 2023).

Where two headings read alike, the source gives them in different places.

This data set concerns the target T1, Jack Bean Urease (Canavalia ensiformis, UniProt P07374).
T1 construct: purchased Millipore Sigma U1500
It is filed as biochemical. The settings on record: for Urease inhibition (in words): 0.1 g in synthetic urine with urease. As to the method: To test the efficiency of different Green Tea Extracts, three different samples were tested: • Sample 1′: pure EGCG: Cas. […] 84650-60-2, EC no. […] The test procedure per sample and for a reference without Green Tea Extract was the following, all steps were performed at ambient lab temperature (23±1° C.) and atmospheric pressure:
Synthetic Urine is prepared by dissolving 2% w/w urea, 0.9% w/w sodium chloride, 0.11% w/w magnesium sulfate monohydrate, 0.079% w/w calcium chloride monohydrate in deionized water. Urease stock solution (23.5 U/ml) is made by dissolving Jack Bean Urease (Catalog number U1500, Millipore Sigma, St. Louis, MO, USA, or equivalent) in deionized water.
67.5 ml of Synthetic urine were added to a beaker and the pH of the Synthetic urine (Urine pH) was determined analogously to the Urease Activity test method described above (Urine pH).
0.1 g of the corresponding Green Tea Extract—except for the reference sample—were added to the beaker and the solution stirred for 15 min. Afterwards the pH of the solution is determined.
7.5 ml of the Urease stock solution were added and the pH was monitored, while the stirring of the solution was maintained.
From the values, the difference in pH mediated by Urease was calculated from the difference of the pH of the Synthetic urine and the final pH determined after addition of the Urease stock.

T1 sequence (P07374 whole entry, looked up): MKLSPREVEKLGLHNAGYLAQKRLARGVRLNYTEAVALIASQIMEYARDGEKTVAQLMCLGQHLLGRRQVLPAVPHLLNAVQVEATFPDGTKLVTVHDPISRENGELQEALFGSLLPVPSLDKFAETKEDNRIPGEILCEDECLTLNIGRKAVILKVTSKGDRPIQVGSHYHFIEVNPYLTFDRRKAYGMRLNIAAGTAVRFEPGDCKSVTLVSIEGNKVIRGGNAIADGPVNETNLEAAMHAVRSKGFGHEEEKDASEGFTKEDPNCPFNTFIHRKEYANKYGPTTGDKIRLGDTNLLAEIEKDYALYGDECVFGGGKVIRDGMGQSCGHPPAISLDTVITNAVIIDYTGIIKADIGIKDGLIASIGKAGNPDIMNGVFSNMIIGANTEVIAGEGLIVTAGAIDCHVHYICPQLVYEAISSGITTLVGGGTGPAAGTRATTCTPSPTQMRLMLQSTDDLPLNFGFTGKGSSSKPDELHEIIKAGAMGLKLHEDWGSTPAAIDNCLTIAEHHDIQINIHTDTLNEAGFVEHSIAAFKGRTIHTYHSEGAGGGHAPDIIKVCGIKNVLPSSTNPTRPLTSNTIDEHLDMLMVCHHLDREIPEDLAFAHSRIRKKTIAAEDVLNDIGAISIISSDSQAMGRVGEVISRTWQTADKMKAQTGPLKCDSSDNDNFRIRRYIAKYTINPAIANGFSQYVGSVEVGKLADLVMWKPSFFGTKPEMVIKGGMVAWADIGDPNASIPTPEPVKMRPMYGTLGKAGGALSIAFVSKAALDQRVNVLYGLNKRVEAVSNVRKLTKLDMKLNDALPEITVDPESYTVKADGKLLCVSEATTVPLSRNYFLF

In the case of `O=C(O[C@@H]1Cc2c(O)cc(O)cc2O[C@@H]1c1cc(O)c(O)c(O)c1)c1cc(O)c(O)c(O)c1` [Sample 1′, Epigallocatechin gallate], the “Urease inhibition (in words)” value is reported as “inhibit Urease”. Moreover, the “Green Tea pH” value (0.1 g in 67.5 ml Synthetic urine, stirred 15 min, before urease addition) is on record as 5.7. For the same compound, the “Urease inhibition (in words)” value (listed as EGCG) is “less efficient in its pure form”. Further, the “End pH” value (after adding 7.5 ml Urease stock solution (23.5 U/ml), pH stabilized (typically 15 to 30 min)) was found to be 7.7. Besides, where the note is “final pH minus pH of the Synthetic urine”, the pH difference worked out at 1.2.
